target: T1, hMAGL (Homo sapiens, UniProt Q99685); experiment: 2-AG assay: MAGL inhibition, hydrolysis of 2-arachidonoylglycerol to arachidonic acid followed by mass spectrometry; type: biochemical
T1 sequence (Q99685 1-303): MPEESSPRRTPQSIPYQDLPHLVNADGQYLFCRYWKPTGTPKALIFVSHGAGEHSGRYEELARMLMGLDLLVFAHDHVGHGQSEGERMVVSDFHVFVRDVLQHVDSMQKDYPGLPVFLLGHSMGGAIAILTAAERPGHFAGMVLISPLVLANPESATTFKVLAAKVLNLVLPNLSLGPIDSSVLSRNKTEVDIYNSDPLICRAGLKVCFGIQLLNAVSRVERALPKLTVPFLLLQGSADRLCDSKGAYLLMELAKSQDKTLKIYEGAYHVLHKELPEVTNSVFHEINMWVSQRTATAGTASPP
Procedure: Compounds of formula (I) were profiled for MAGL inhibitory activity by determining the enzymatic activity by following the hydrolysis of the natural substrate 2-arachidonoylglycerol (2-AG) resulting in arachidonic acid, which can be followed by mass spectrometry. This assay is hereinafter abbreviated “2-AG assay”. The 2-AG assay was carried out in 384 well polypropylene assay plates. […] Compound dilutions were added to MAGL protein in assay buffer (50 mM TRIS, 1 mM EDTA, 0.01% (v/v) Tween-20, 2.5% (v/v) DMSO). After shaking, the plate was incubated for 15 min at RT. To start the reaction, 2-arachidonoylglycerol in assay buffer was added. The final concentrations in the assay was […] for MAGL protein and 8 μM 2-arachidonoylglyerol. After shaking and 30 min incubation at RT, the reaction was quenched by the addition of two assay volumes of acetonitrile containing 4 μM of d8-arachidonic acid. The amount of arachidonic acid formed was traced by an online SPE system (Agilent Rapidfire) coupled to a triple quadrupole mass spectrometer. A C18 SPE cartridge (Agilent G9205A) was used in an acetonitrile/water liquid setup. […] The activity of the compounds was calculated based on the ratio of intensities [arachidonic acid/d8-arachidonic acid].

Question: With `Cn1ncc(CC2CC3(C2)CN(C(=O)N2CC4(CC(n5cnc(C6(O)CC6)n5)C4)C2)C3)c1C(F)(F)F` [Example 1, [6-[3-(1-hydroxycyclopropyl)-1,2,4-triazol-1-yl]-2-azaspiro[3.3]heptan-2-yl]-[6-[[1-methyl-5-(trifluoromethyl)pyrazol-4-yl]methyl]-2-azaspiro[3.3]heptan-2-yl]methanone] as the molecule, how does the IC50 read?
Answer: The IC50 was 0.47 nM.

Question: Which IC50 does the source give for `Cn1nc(CC2CC3(C2)CN(C(=O)N2CC4(CC(n5cnc(C6(O)CC6)n5)C4)C2)C3)cc1C(F)(F)F` [Example 2, [6-[3-(1-hydroxycyclopropyl)-1,2,4-triazol-1-yl]-2-azaspiro[3.3]heptan-2-yl]-[6-[[1-methyl-5-(trifluoromethyl)pyrazol-3-yl]methyl]-2-azaspiro[3.3]heptan-2-yl]methanone] here?
Answer: Its IC50 is 0.61 nM.

Question: For `Cn1ncc(C(F)(F)F)c1CC1CC2(C1)CN(C(=O)N1CC3(CC(n4cnc(C5(O)CC5)n4)C3)C1)C2` [Example 3], which IC50 is on record?
Answer: Its IC50 is 2.21 nM.

Question: With `O=C(N1CC2(CC(Cn3nccc3C(F)(F)F)C2)C1)N1CC2(CC(n3cnc(C4(O)CC4)n3)C2)C1` [Example 4] as the molecule, how does the IC50 read?
Answer: The IC50 was 1.74 nM.

Question: `O=C(N1CC2(CC(Cn3nccc3C(F)(F)F)C2)C1)N1CC2(CC(c3cc(C4(O)CC4)n[nH]3)C2)C1` [Example 5] was tested. Which IC50 did it give?
Answer: The IC50 was 1.7 nM.

Question: `Cn1cc(CC2CC3(C2)CN(C(=O)N2CC4(CC(n5cnc(C6(O)CC6)n5)C4)C2)C3)c(C(F)(F)F)n1` [Example 6, [6-[3-(1-hydroxycyclopropyl)-1,2,4-triazol-1-yl]-2-azaspiro[3.3]heptan-2-yl]-[6-[[1-methyl-3-(trifluoromethyl)pyrazol-4-yl]methyl]-2-azaspiro[3.3]heptan-2-yl]methanone] was tested. Which IC50 did it give?
Answer: The IC50 was 4.93 nM.

Question: For `O=C(N1CC2(CC(Cc3nnc(C4(C(F)(F)F)CC4)o3)C2)C1)N1CC2(CC(n3cnc(C(F)(F)F)n3)C2)C1` [Example 7], which IC50 is on record?
Answer: The IC50 was 2.51 nM.

Question: `O=C(N1CC2(CC(Cc3nnc(C4(C(F)(F)F)CC4)o3)C2)C1)N1CC2(CC(n3cnc(C4CC4)n3)C2)C1` [Example 8] was tested. Which IC50 did it give?
Answer: The IC50 was 0.7 nM.

Question: For `O=C(N1CC2(CC(Cc3n[nH]c(C(F)(F)F)n3)C2)C1)N1CC2(CC(n3cnc(C(F)(F)F)n3)C2)C1` [Example 9, [6-[3-(trifluoromethyl)-1,2,4-triazol-1-yl]-2-azaspiro[3.3]heptan-2-yl]-[6-[[5-(trifluoromethyl)-1H-1,2,4-triazol-3-yl]methyl]-2-azaspiro[3.3]heptan-2-yl]methanone], which IC50 is on record?
Answer: The IC50 was 7.07 nM.

Question: With `O=C(N1CC2(CC(Cc3n[nH]c(C(F)(F)F)n3)C2)C1)N1CC2(CC(n3cnc(C4CC4)n3)C2)C1` [Example 10] as the molecule, how does the IC50 read?
Answer: Its IC50 is 1.96 nM.

Question: Which IC50 does the source give for `O=C(N1CC2(CC(Cc3n[nH]c(C(F)(F)F)n3)C2)C1)N1CC2(CC(n3cnc(C4(O)CC4)n3)C2)C1` [Example 11, [6-[3-(1-hydroxycyclopropyl)-1,2,4-triazol-1-yl]-2-azaspiro[3.3]heptan-2-yl]-[6-[[5-(trifluoromethyl)-1H-1,2,4-triazol-3-yl]methyl]-2-azaspiro[3.3]heptan-2-yl]methanone] here?
Answer: The IC50 was 20.4 nM.

Question: Which IC50 does the source give for `O=C(N1CC2(CC(Cn3cc(C(F)(F)F)cn3)C2)C1)N1CC2(CC(n3cnc(C4(O)CC4)n3)C2)C1` [Example 12] here?
Answer: The IC50 was 8.67 nM.

Question: Which IC50 does the source give for `O=C(N1CC2(CC(Oc3nc(C(F)(F)F)cs3)C2)C1)N1CC2(CC(n3cnc(C4(O)CC4)n3)C2)C1` [Example 13, [6-[3-(1-hydroxycyclopropyl)-1,2,4-triazol-1-yl]-2-azaspiro[3.3]heptan-2-yl]-[6-[4-(trifluoromethyl)thiazol-2-yl]oxy-2-azaspiro[3.3]heptan-2-yl]methanone] here?
Answer: The IC50 was 14.9 nM.

Question: How did the IC50 turn out when `O=C(N1CC2(CC(Cc3cnn(C(F)(F)F)c3)C2)C1)N1CC2(CC(n3cnc(C4(O)CC4)n3)C2)C1` [Example 14] was run?
Answer: The IC50 was 6.35 nM.

Question: Which IC50 does the source give for `O=C(N1CC2(CC(Cc3nc(C(F)(F)F)ns3)C2)C1)N1CC2(CC(n3cnc(C(F)(F)F)n3)C2)C1` [Example 15, [6-[[3-(trifluoromethyl)-1,2,4-thiadiazol-5-yl]methyl]-2-azaspiro[3.3]heptan-2-yl]-[6-[3-(trifluoromethyl)-1,2,4-triazol-1-yl]-2-azaspiro[3.3]heptan-2-yl]methanone] here?
Answer: Its IC50 is 2.25 nM.

Question: With `O=C(N1CC2(CC(Cc3nc(C(F)(F)F)ns3)C2)C1)N1CC2(CC(n3cnc(C4CC4)n3)C2)C1` [Example 16] as the molecule, how does the IC50 read?
Answer: The IC50 was 0.18 nM.

Question: For `O=C(N1CC2(CC(Cc3nc(C(F)(F)F)ns3)C2)C1)N1CC2(CC(n3cnc(C4(O)CC4)n3)C2)C1` [Example 17, [6-[3-(1-hydroxycyclopropyl)-1,2,4-triazol-1-yl]-2-azaspiro[3.3]heptan-2-yl]-[6-[[3-(trifluoromethyl)-1,2,4-thiadiazol-5-yl]methyl]-2-azaspiro[3.3]heptan-2-yl]methanone], which IC50 is on record?
Answer: The IC50 was 17.5 nM.

Question: `O=C(N1CC2(CCN(Cc3cc(C(F)(F)F)no3)CC2)C1)N1CC2(CC(n3cnc(C4(O)CC4)n3)C2)C1` [Example 18, [6-[3-(1-hydroxycyclopropyl)-1,2,4-triazol-1-yl]-2-azaspiro[3.3]heptan-2-yl]-[7-[[3-(trifluoromethyl)isoxazol-5-yl]methyl]-2,7-diazaspiro[3.5]nonan-2-yl]methanone] was tested. Which IC50 did it give?
Answer: The IC50 was 334 nM.

Question: With `O=C(N1CC2(CC(n3cnc(C4(O)CC4)n3)C2)C1)N1CC2(CN(Cc3cnc(C(F)(F)F)s3)C2)C1` [Example 19] as the molecule, how does the IC50 read?
Answer: The IC50 was 34.5 nM.

Question: `O=C(N1CC2(CC(Cc3nsc(C(F)(F)F)n3)C2)C1)N1CC2(CC(n3cnc(C(F)(F)F)n3)C2)C1` [Example 20, [6-[[5-(trifluoromethyl)-1,2,4-thiadiazol-3-yl]methyl]-2-azaspiro[3.3]heptan-2-yl]-[6-[3-(trifluoromethyl)-1,2,4-triazol-1-yl]-2-azaspiro[3.3]heptan-2-yl]methanone] was tested. Which IC50 did it give?
Answer: Its IC50 is 0.85 nM.

Question: Which IC50 does the source give for `O=C(N1CC2(CC(Cc3nsc(C(F)(F)F)n3)C2)C1)N1CC2(CC(n3cnc(C4CC4)n3)C2)C1` [Example 21, [6-(3-cyclopropyl-1,2,4-triazol-1-yl)-2-azaspiro[3.3]heptan-2-yl]-[6-[[5-(trifluoromethyl)-1,2,4-thiadiazol-3-yl]methyl]-2-azaspiro[3.3]heptan-2-yl]methanone] here?
Answer: Its IC50 is 0.1 nM.

Question: With `O=C(N1CC2(CC(Cc3nsc(C(F)(F)F)n3)C2)C1)N1CC2(CC(n3cnc(C4(O)CC4)n3)C2)C1` [Example 22, [6-[3-(1-hydroxycyclopropyl)-1,2,4-triazol-1-yl]-2-azaspiro[3.3]heptan-2-yl]-[6-[[5-(trifluoromethyl)-1,2,4-thiadiazol-3-yl]methyl]-2-azaspiro[3.3]heptan-2-yl]methanone] as the molecule, how does the IC50 read?
Answer: Its IC50 is 2.57 nM.

Question: For `O=C(N1CC2(CC(Cc3nc(C(F)(F)F)co3)C2)C1)N1CC2(CC(n3cnc(C4(O)CC4)n3)C2)C1` [Example 23, [6-[3-(1-hydroxycyclopropyl)-1,2,4-triazol-1-yl]-2-azaspiro[3.3]heptan-2-yl]-[6-[[4-(trifluoromethyl)oxazol-2-yl]methyl]-2-azaspiro[3.3]heptan-2-yl]methanone], which IC50 is on record?
Answer: The IC50 was 24.5 nM.

Question: `Cn1nc(C(F)(F)F)cc1CN1CCC2(CC1)CN(C(=O)N1CC3(CC(c4cc(C5CC5)n[nH]4)C3)C1)C2` [Example 24] was tested. Which IC50 did it give?
Answer: The IC50 was 6.51 nM.

Question: How did the IC50 turn out when `Cn1nc(C(F)(F)F)cc1CN1CCC2(CC1)CN(C(=O)N1CC3(CC(n4cnc(C(F)(F)F)n4)C3)C1)C2` [Example 25] was run?
Answer: Its IC50 is 25.2 nM.

Question: How did the IC50 turn out when `Cn1nc(C(F)(F)F)cc1CN1CCC2(CC1)CN(C(=O)N1CC3(CC(n4cnc(C5CC5)n4)C3)C1)C2` [Example 26, [6-(3-cyclopropyl-1,2,4-triazol-1-yl)-2-azaspiro[3.3]heptan-2-yl]-[7-[[2-methyl-5-(trifluoromethyl)pyrazol-3-yl]methyl]-2,7-diazaspiro[3.5]nonan-2-yl]methanone] was run?
Answer: Its IC50 is 3.42 nM.

Question: `Cn1nc(C(F)(F)F)cc1CN1CCC2(CC1)CN(C(=O)N1CC3(CC(n4cnc(C5(O)CC5)n4)C3)C1)C2` [Example 27, [6-[3-(1-hydroxycyclopropyl)-1,2,4-triazol-1-yl]-2-azaspiro[3.3]heptan-2-yl]-[7-[[2-methyl-5-(trifluoromethyl)pyrazol-3-yl]methyl]-2,7-diazaspiro[3.5]nonan-2-yl]methanone] was tested. Which IC50 did it give?
Answer: The IC50 was 122 nM.

Question: Which IC50 does the source give for `O=C(N1CC2(CCN(Cc3cc(C(F)(F)F)[nH]n3)CC2)C1)N1CC2(CC(n3cnc(C(F)(F)F)n3)C2)C1` [Example 28] here?
Answer: The IC50 was 20.5 nM.

Question: For `O=C(N1CC2(CCN(Cc3cc(C(F)(F)F)[nH]n3)CC2)C1)N1CC2(CC(n3cnc(C4CC4)n3)C2)C1` [Example 29, [6-(3-cyclopropyl-1,2,4-triazol-1-yl)-2-azaspiro[3.3]heptan-2-yl]-[7-[[5-(trifluoromethyl)-1H-pyrazol-3-yl]methyl]-2,7-diazaspiro[3.5]nonan-2-yl]methanone], which IC50 is on record?
Answer: The IC50 was 4.2 nM.

Question: For `O=C(N1CC2(CCN(Cc3ncc(C(F)F)s3)CC2)C1)N1CC2(CC(c3cc(C4CC4)n[nH]3)C2)C1` [Example 30, [6-(3-cyclopropyl-1H-pyrazol-5-yl)-2-azaspiro[3.3]heptan-2-yl]-[7-[[5-(difluoromethyl)thiazol-2-yl]methyl]-2,7-diazaspiro[3.5]nonan-2-yl]methanone], which IC50 is on record?
Answer: Its IC50 is 3.59 nM.

From patent US20260374756A1, “HETEROCYCLIC COMPOUNDS AS INHIBITORS OF MONOACYLGLYCEROL LIPASE (MAGL)” (Hoffmann-La Roche Inc., priority 2022, published 2026)
